Results on one compound are retold here after BindingDB's records for patent US10654860 (Bristol Myers Squibb, 2020).

In the assay the target is Rho-associated protein kinase 2 (Homo sapiens, UniProt O75116). The assay is described as follows: In Vitro Assay. The protocol: The effectiveness of compounds of the present invention as ROCK inhibitors can be determined in a 30 μL, assay containing 20 mM HEPES, pH 7.5, 20 mM MgCl2, 0.015% Brij-35, 4 mM DTT, 5 μM ATP and 1.5 μM peptide substrate (FITC-AHA-AKRRRLSSLRA-OH). Compounds were dissolved in DMSO so that the final concentration of DMSO was <2%, and the reaction was initiated with Rho kinase variants. After incubation, the reaction was terminated by the addition of EDTA and the phosphorylated and non-phosphorylated peptides separated using a LABCHIP 3000 Reader (Caliper Life Sciences). […] Compounds were tested in dose-response format, and the inhibition of kinase activity was calculated at each concentration of compound.
Chain of Rho-associated protein kinase 2 (O75116 whole entry): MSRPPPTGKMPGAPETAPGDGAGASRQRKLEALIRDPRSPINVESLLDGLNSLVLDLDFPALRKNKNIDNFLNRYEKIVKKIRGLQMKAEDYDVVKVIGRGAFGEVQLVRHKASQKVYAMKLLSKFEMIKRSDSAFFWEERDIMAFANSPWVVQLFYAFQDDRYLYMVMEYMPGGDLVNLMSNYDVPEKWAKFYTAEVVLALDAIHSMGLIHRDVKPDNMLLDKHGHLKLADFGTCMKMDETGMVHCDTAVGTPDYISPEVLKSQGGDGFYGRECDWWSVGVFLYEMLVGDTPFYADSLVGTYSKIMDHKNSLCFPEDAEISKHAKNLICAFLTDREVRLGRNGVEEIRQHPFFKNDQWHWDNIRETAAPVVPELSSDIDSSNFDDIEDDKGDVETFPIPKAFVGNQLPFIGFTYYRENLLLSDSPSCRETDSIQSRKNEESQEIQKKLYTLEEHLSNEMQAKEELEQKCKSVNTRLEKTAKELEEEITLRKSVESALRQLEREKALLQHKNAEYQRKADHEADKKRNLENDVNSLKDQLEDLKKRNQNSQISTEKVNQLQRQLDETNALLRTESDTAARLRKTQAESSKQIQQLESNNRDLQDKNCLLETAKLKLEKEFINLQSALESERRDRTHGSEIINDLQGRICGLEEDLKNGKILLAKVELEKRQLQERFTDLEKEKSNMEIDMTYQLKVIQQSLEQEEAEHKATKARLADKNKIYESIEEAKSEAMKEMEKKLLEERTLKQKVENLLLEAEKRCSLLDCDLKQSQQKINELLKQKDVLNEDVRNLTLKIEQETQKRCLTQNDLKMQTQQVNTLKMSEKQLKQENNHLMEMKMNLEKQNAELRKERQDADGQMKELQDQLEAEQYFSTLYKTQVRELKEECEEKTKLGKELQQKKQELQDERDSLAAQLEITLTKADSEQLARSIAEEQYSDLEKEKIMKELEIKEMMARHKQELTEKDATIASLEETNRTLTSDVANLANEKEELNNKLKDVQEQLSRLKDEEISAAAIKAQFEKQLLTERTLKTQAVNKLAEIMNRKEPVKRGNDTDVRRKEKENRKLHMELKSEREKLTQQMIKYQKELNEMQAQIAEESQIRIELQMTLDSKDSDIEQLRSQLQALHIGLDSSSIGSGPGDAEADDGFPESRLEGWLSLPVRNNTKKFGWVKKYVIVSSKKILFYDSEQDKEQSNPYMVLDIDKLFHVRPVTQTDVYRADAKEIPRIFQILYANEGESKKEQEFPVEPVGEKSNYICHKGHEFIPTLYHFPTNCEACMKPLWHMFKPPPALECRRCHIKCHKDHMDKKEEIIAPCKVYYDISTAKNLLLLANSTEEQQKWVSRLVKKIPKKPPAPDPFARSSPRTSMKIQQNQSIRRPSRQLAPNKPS

For `N[C@H](CCc1ccccc1)C(=O)Nc1ccc2c(c1)CCc1n[nH]cc1-2` [US10654860, Example 4], the IC50 (in general, the concentration that inhibits the measured activity by half) is less than 10 nM.
